{
  "source": "paper PMC2806265",
  "about": "“Divergence of allosteric effects of rapacuronium on binding and function of muscarinic receptors” (BMC Pharmacology, 2009)",
  "key": {"[1]": {"target": "T1, M4 muscarinic receptor (Homo sapiens, UniProt P08173)", "T1 sequence (P08173 1-479)": "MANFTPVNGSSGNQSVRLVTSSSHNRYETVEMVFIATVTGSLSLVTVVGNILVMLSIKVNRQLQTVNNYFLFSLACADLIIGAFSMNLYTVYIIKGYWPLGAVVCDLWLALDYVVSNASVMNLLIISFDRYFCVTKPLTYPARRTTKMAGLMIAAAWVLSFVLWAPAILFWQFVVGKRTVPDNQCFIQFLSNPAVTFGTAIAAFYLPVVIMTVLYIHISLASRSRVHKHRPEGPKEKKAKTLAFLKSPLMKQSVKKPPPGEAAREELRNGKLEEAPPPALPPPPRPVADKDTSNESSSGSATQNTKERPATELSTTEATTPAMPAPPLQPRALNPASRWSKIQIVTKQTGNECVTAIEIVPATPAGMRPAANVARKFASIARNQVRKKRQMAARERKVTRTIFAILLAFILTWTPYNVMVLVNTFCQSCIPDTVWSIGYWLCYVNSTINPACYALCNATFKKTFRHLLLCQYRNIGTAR", "test": "[3H]ACh saturation binding", "design": "host or cells: CHO cells, stably transfected; membranes", "source_text": "(§1) BMAX, maximum binding capacity; KD, equilibrium dissociation constant."}, "[2]": {"target": "T2, M5 muscarinic receptor (Homo sapiens, UniProt P08912)", "T2 sequence (P08912 1-532)": "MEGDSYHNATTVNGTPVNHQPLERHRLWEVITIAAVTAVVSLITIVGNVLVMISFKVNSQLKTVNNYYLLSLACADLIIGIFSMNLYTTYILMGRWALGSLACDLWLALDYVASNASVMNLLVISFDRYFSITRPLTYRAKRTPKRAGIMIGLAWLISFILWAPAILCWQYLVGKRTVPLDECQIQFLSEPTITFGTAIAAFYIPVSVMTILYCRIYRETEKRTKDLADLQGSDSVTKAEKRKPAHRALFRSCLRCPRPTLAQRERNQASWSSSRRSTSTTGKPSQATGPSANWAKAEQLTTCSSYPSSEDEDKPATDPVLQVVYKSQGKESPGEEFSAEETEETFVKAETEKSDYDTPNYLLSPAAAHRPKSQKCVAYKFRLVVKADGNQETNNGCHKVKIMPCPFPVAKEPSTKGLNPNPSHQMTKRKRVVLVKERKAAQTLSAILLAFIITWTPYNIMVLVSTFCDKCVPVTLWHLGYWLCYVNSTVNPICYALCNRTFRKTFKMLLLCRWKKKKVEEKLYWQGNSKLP", "test": "[3H]ACh saturation binding", "design": "host or cells: CHO cells, stably transfected; membranes", "source_text": "as §1"}, "[3]": {"target": "T3, M3 muscarinic receptor (Homo sapiens, UniProt P20309)", "T3 construct": "host or cells: CHO cells, stably transfected; membranes", "T3 sequence (P20309 whole entry)": "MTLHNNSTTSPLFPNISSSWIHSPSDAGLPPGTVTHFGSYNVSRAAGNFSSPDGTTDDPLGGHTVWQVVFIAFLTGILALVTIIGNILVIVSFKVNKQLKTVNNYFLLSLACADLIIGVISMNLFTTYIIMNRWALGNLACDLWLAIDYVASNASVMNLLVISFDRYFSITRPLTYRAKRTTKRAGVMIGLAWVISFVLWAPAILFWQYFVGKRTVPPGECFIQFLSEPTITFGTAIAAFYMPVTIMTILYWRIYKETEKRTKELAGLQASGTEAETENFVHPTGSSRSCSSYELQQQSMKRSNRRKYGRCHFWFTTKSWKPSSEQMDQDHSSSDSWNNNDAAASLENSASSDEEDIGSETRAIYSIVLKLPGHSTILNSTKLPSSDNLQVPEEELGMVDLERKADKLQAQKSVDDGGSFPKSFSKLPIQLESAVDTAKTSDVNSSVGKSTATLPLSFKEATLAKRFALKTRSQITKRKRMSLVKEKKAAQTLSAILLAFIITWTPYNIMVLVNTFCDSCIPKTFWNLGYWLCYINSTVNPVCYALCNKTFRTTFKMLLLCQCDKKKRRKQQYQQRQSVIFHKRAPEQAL", "type": "binding", "source_text": "(§2) y, radioligand binding at time x normalized to binding at time 0; koff1 and koff2, dissociation rate constants; f2, fraction of binding site with dissociation rate constant koff2. When both Eq. 7a and 7b were fitted to data the better fit was chosen based on sum of squares F-test and runs test."}, "[4]": {"target": "T4, M1 muscarinic receptor (Homo sapiens, UniProt P11229)", "T4 construct": "host or cells: CHO cells, stably transfected; membrane preparation", "T4 sequence (P11229 1-460)": "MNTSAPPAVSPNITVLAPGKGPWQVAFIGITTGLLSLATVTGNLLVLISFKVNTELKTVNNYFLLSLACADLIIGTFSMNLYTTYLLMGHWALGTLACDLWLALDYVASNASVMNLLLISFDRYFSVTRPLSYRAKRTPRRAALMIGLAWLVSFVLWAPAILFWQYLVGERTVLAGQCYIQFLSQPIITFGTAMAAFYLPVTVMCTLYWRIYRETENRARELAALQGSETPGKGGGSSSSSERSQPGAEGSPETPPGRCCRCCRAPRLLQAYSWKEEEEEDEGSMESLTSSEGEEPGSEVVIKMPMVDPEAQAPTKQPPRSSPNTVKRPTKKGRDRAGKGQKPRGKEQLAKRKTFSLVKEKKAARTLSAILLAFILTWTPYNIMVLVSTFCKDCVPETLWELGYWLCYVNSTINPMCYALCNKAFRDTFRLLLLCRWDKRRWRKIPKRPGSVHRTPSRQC", "type": "binding", "settings": "+ 100 μM rapacuronium", "source_text": "as §2"}, "[5]": {"target": "T3, M3 muscarinic receptor", "type": "binding", "source_text": "as §1", "remark": "listed apart in the source"}, "[6]": {"target": "T4, M1 muscarinic receptor", "type": "binding", "source_text": "as §1"}, "[7]": {"target": "T4, M1 muscarinic receptor", "test": "[35S]GTPγS binding to membranes", "type": "biochemical", "settings": "for EMAX of ACh on [^35S]GTPγS binding: fold of basal", "experimental": "(§4) For determination of [^35S]GTPγS binding to G-proteins in membranes a final concentration of 200 pM (M1, M3 and M5 receptors) or 500 pM (M2 and M4 receptors) of [^35S]GTPγS was used. Incubation medium was supplemented with 5 μM (M1, M3 and M5 receptors) or 50 μM (M2 and M4 receptors) GDP. […] Incubation with [^35S]GTPγS was carried out for 20 min and free ligand was removed by filtration as described above. Filtration and washing with ice-cold water lasted for 9 s (wash-aspirate button time)."}, "[8]": {"target": "T2, M5 muscarinic receptor", "test": "[35S]GTPγS binding to membranes", "type": "biochemical", "design": "host or cells: CHO cells, stably transfected; membranes", "settings": "for EMAX of ACh on [^35S]GTPγS binding: fold of basal", "experimental": "as §4"}, "[9]": {"target": "T3, M3 muscarinic receptor", "test": "Effect of rapacuronium on high-affinity 20 nM [3H]ACh binding", "source_text": "(§3) Cooperativity factor greater than 1 denotes negative cooperativity and less than 1 positive cooperativity. Due to its log-normal error distribution factors of cooperativity are expressed as negative logarithms (pα) through the manuscript so negative values denotes negative cooperativity and positive value denotes positive cooperativity."}, "[10]": {"target": "T4, M1 muscarinic receptor", "test": "Effect of rapacuronium on high-affinity 20 nM [3H]ACh binding", "source_text": "as §3"}, "[11]": {"settings": "read-out: pKA of rapacuronium (converted)"}},
  "note": "Read-outs that look alike come from different tables or passages of the source. Marks after values point to notes of the source that are not given here.",
  "data": [
    {"smiles": "C=CC[N+]1([C@H]2C[C@H]3[C@@H]4CC[C@H]5C[C@H](OC(C)=O)[C@@H](N6CCCCC6)C[C@]5(C)[C@H]4CC[C@]3(C)[C@H]2OC(=O)CC)CCCCC1", "note": "[rapacuronium]", "values": [
      {"measurement": "BMAX of [^3H]ACh", "setting": "[1]; + 10 μM rapacuronium", "value": "0.54 ± 0.05 fmol/μg of protein"},
      {"measurement": "BMAX of [^3H]ACh", "setting": "[1]; + 100 μM rapacuronium", "value": "0.47 ± 0.04 fmol/μg of protein"},
      {"measurement": "BMAX of [^3H]ACh", "setting": "[2]; + 10 μM rapacuronium", "value": "0.33 ± 0.03 fmol/μg of protein"},
      {"measurement": "BMAX of [^3H]ACh", "setting": "[2]; + 100 μM rapacuronium", "value": "0.34 ± 0.06 fmol/μg of protein"},
      {"measurement": "decrease in rate of [^3H]NMS dissociation", "setting": "[3]; 100 μM rapacuronium", "value": 40, "unit": "%"},
      {"measurement": "f2, fraction of sites with faster dissociation", "setting": "[3]; + 100 μM rapacuronium", "value": "20 ± 4", "unit": "%"},
      {"measurement": "koff1 of [^3H]NMS dissociation", "setting": "[3]; + 100 μM rapacuronium", "value": "0.031 ± 0.002* min^-1"},
      {"measurement": "koff2 of [^3H]NMS dissociation", "setting": "[3]; + 100 μM rapacuronium", "value": "0.000967 ± 0.00015", "unit": "s⁻¹"},
      {"measurement": "f2, fraction of sites with faster dissociation", "setting": "[4]", "value": "14 ± 3", "unit": "%"},
      {"measurement": "koff1 of [^3H]NMS dissociation", "setting": "[4]", "value": "0.014 ± 0.001* min^-1"},
      {"measurement": "koff2 of [^3H]NMS dissociation", "setting": "[4]", "value": "0.00567 ± 0.00083", "unit": "s⁻¹"},
      {"measurement": "BMAX of [^3H]NMS", "setting": "[5]; + 10 μM rapacuronium", "value": "1.67 ± 0.14 fmol/μg of protein"},
      {"measurement": "BMAX of [^3H]NMS", "setting": "[5]; + 100 μM rapacuronium", "value": "1.59 ± 0.16 fmol/μg of protein"},
      {"measurement": "BMAX of [^3H]NMS", "setting": "[6]; + 10 μM rapacuronium", "value": "2.03 ± 0.15 fmol/μg of protein"},
      {"measurement": "BMAX of [^3H]NMS", "setting": "[6]; + 100 μM rapacuronium", "value": "1.85 ± 0.17 fmol/μg of protein"},
      {"measurement": "decrease in ACh EC50", "setting": "[7]; 0.1 μM rapacuronium", "value": 1.5, "unit": "fold"},
      {"measurement": "decrease in ACh EC50", "setting": "[7]; 1 μM rapacuronium", "value": 4, "unit": "fold"},
      {"measurement": "EMAX of ACh on [^35S]GTPγS binding", "setting": "[7]; + 0.1 μM rapacuronium", "value": "2.35 ± 0.12"},
      {"measurement": "EMAX of ACh on [^35S]GTPγS binding", "setting": "[7]; + 1 μM rapacuronium", "value": "2.28 ± 0.12"},
      {"measurement": "EMAX of ACh on [^35S]GTPγS binding", "setting": "[7]; + 10 μM rapacuronium", "value": "2.27 ± 0.11"},
      {"measurement": "EMAX of rapacuronium on [^35S]GTPγS binding", "setting": "[7]; rapacuronium alone, normalized to absence of rapacuronium", "value": "0.76 ± 0.08"},
      {"measurement": "EC50", "setting": "[7]; rapacuronium alone, read-out: pEC50 of rapacuronium on [^35S]GTPγS binding (converted)", "value": 50.1, "unit": "µM"},
      {"measurement": "EC50", "setting": "[8]", "value": 61.7, "unit": "µM"},
      {"measurement": "decrease in ACh EC50", "setting": "[8]; M5, 0.1 μM rapacuronium", "value": 1.5, "unit": "fold"},
      {"measurement": "decrease in ACh EC50", "setting": "[8]; M5, 1 μM rapacuronium", "value": 4, "unit": "fold"},
      {"measurement": "EMAX of ACh on [^35S]GTPγS binding", "setting": "[8]; M5, + 0.1 μM rapacuronium", "value": "2.10 ± 0.09"},
      {"measurement": "EMAX of ACh on [^35S]GTPγS binding", "setting": "[8]; M5, + 1 μM rapacuronium", "value": "2.04 ± 0.09"},
      {"measurement": "EMAX of ACh on [^35S]GTPγS binding", "setting": "[8]; M5, + 10 μM rapacuronium", "value": "2.22 ± 0.09"},
      {"measurement": "EMAX of rapacuronium on [^35S]GTPγS binding", "setting": "[8]; M5, rapacuronium alone, normalized to absence of rapacuronium", "value": "0.75 ± 0.07"},
      {"measurement": "pα, cooperativity with [^3H]ACh high affinity binding", "setting": "[9]; M3, negative value = negative cooperativity", "value": "-1.26 ± 0.05"},
      {"measurement": "Kd", "setting": "[9]; [11]", "value": 15.8, "unit": "µM"},
      {"measurement": "pα, cooperativity with [^3H]ACh high affinity binding", "setting": "[10]; M1, negative value = negative cooperativity", "value": "-1.30 ± 0.07"},
      {"measurement": "Kd", "setting": "[10]; [11]", "value": 4.27, "unit": "µM"}
    ]}
  ]
}
